The record followed here is ChEMBL document CHEMBL1201862, “PubChem BioAssay data set” (2004).

Test systems include A498; A549; DU-145; HCT-116; HL-60; HOP-62; HT-29; IGROV-1; LOX IMVI; M14; MOLT-4; NCI/ADR-RES; OVCAR-3; OVCAR-8; PC-3; SK-MEL-2; SW-620; T47D; UACC-257; UO-31.
Common to all, as to test: NCI anticancer screen, dose series, 48 h

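Five concentrations, 48 hours, 96-well plates. GI50 is the concentration that inhibits growth by half.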 Active and inactive are the calls of the source. Cut-off read from the data, not from the text of the source: active = GI50 up to about 1.1 µM and inactive = higher.

Consider `C[C@]12CCC(=O)C=C1CC[C@@H]1[C@@H]2CC[C@]2(C)C(=O)/C(=C\c3ccccc3)C[C@@H]12`, for which the GI50 in the assay on A498 was 15.6 µM (inactive); with A549 it was 22.6 µM (inactive); with DU-145 it was 33.5 µM (inactive); in the assay with HCT-116, 11.4 µM (inactive); with HL-60, 9.79 µM (inactive); in the assay with HOP-62, 38.6 µM (inactive). For the same compound, the GI50 in the assay on HT-29 was 19.6 µM (inactive); with IGROV-1, 51.3 µM (inactive); in the assay with LOX IMVI, 21.2 µM (inactive); in the assay with M14 it was 22.4 µM (inactive); in the assay with MOLT-4, 14 µM (inactive); in the assay on NCI/ADR-RES, 14 µM (inactive). The GI50 was 22.1 µM (inactive) in the assay on OVCAR-3; 21.7 µM (inactive) in the assay on OVCAR-8; 12.8 µM (inactive) in the assay on PC-3; 11.7 µM (inactive) with SK-MEL-2; 22.8 µM (inactive) with SW-620; 17.5 µM (inactive) in the assay on T47D. Moreover, the values for the GI50 in the assay on UACC-257 and in the assay with UO-31 were 23.1 µM (inactive) and 25.7 µM (inactive), respectively.
Take `N#C/C(=C\c1c[nH]c2ccccc12)C(=O)c1ccc(O)c(O)c1`: the GI50 in the assay on A498 is 41.6 µM (inactive); in the assay on A549, 26.1 µM (inactive); with DU-145, 27.4 µM (inactive); in the assay with HCT-116 it was 31.4 µM (inactive); with HL-60, 13.2 µM (inactive); in the assay with HOP-62, 19.2 µM (inactive). For the same compound, the GI50 in the assay on HT-29 is 28 µM (inactive); in the assay on IGROV-1, 24.6 µM (inactive); in the assay on LOX IMVI, 23.7 µM (inactive); with M14 it was 38.5 µM (inactive); in the assay with MOLT-4, 12.4 µM (inactive); in the assay on NCI/ADR-RES, 20.5 µM (inactive). Further, the GI50 is 3.33 µM (inactive) in the assay with OVCAR-3; 38.5 µM (inactive) in the assay on OVCAR-8; 33.8 µM (inactive) in the assay on PC-3; > 36.7 µM (inactive) in the assay with SK-MEL-2; 32.7 µM (inactive) in the assay with SW-620; 31 µM (inactive) in the assay on T47D. Besides, the GI50 with UACC-257 is 50.7 µM (inactive); with UO-31, 6.85 µM (inactive).
Regarding `CC(=O)OC12CC(C)C3(O)C4C=C(C)C(=O)[C@@]4(O)CC(CO)=C[C@H]3C1C2(C)C` (stereo not given in full), the GI50 in the assay with A498 was 0.41 µM (active); in the assay with A549 it was 2.38 µM (inactive); in the assay with DU-145, > 10 µM (inactive); in the assay with HCT-116 it was > 10 µM (inactive); in the assay on HL-60, 0.887 µM (active); in the assay with HOP-62, > 100 µM (inactive). Moreover, the GI50 in the assay on HT-29 is > 10 µM (inactive); in the assay on IGROV-1, > 10 µM (inactive); in the assay with LOX IMVI, > 10 µM (inactive); in the assay with M14, > 10 µM (inactive); in the assay on MOLT-4, > 1000 µM (inactive); in the assay with NCI/ADR-RES it was > 10 µM (inactive). For the same compound, the GI50 is > 10 µM (inactive) in the assay with OVCAR-3; > 10 µM (inactive) in the assay with OVCAR-8; > 1000 µM (inactive) with PC-3; > 10 µM (inactive) in the assay with SK-MEL-2; 5.73 µM (inactive) in the assay with SW-620; > 100 µM (inactive) with T47D. Further, the GI50 in the assay on UACC-257 and in the assay with UO-31 was > 10 µM (inactive) in each case.
`O=C(O)Cc1c[nH]c2ccc(F)cc12`: the GI50 with A498, in the assay on A549, in the assay with DU-145, in the assay with HCT-116, in the assay on HL-60 and in the assay with HOP-62 was > 100 µM (inactive) each time. Further, the GI50 in the assay on HT-29, with IGROV-1, in the assay on LOX IMVI, in the assay on M14, with MOLT-4 and in the assay on NCI/ADR-RES was > 100 µM (inactive) each time. Besides, the GI50 with OVCAR-3, with OVCAR-8, in the assay with PC-3, in the assay on SK-MEL-2, with SW-620 and in the assay with T47D was > 100 µM (inactive) each time. The GI50 in the assay with UACC-257 and in the assay on UO-31 was > 100 µM (inactive) each time.
As for `CCC(C)NC(=S)N/N=C(\C)c1nc2cccnc2[nH]1` (stereo not given), the GI50 in the assay with A498 was 57.3 µM (inactive); in the assay on A549, 14.9 µM (inactive); with DU-145 it was 16.9 µM (inactive); in the assay on HCT-116 it was 6.05 µM (inactive); with HL-60 it was 4.92 µM (inactive); in the assay on HOP-62 it was 7.78 µM (inactive). In addition, the GI50 in the assay with HT-29 is 4.49 µM (inactive); in the assay on IGROV-1, 12.2 µM (inactive); with LOX IMVI, 10.9 µM (inactive); with M14, 12.7 µM (inactive); with MOLT-4 it was 3.6 µM (inactive); with NCI/ADR-RES, 16.7 µM (inactive). In addition, the GI50 in the assay with OVCAR-3 is 3.25 µM (inactive); in the assay with OVCAR-8, 4 µM (inactive); in the assay on PC-3, 8.85 µM (inactive); in the assay with SK-MEL-2, 5.92 µM (inactive); in the assay with SW-620, 4.52 µM (inactive); with T47D, 2.1 µM (inactive). Besides, the GI50 with UACC-257 is 5.79 µM (inactive); in the assay with UO-31 it was 2.32 µM (inactive).
For `O=C(Cc1nc2ccccc2[nH]c1=O)c1c[nH]c2ccccc12`, the GI50 is 14.7 µM (inactive) in the assay on A498; 10.9 µM (inactive) in the assay with A549; 15.2 µM (inactive) in the assay on DU-145; 13.8 µM (inactive) with HCT-116; 10.3 µM (inactive) in the assay with HL-60; 21 µM (inactive) in the assay on HOP-62. For the same compound, the GI50 in the assay with HT-29 is 6.08 µM (inactive); in the assay with IGROV-1, 20.3 µM (inactive); in the assay with LOX IMVI, 13.7 µM (inactive); with M14, 15.3 µM (inactive); in the assay on MOLT-4, 6.01 µM (inactive); in the assay on NCI/ADR-RES, 8.65 µM (inactive). Moreover, the GI50 in the assay with OVCAR-3 is 14 µM (inactive); in the assay with OVCAR-8 it was 14.1 µM (inactive); in the assay with PC-3 it was 10.5 µM (inactive); in the assay on SK-MEL-2 it was 10.1 µM (inactive); in the assay with SW-620, 24.9 µM (inactive); with T47D, 12.2 µM (inactive). Besides, the GI50 with UACC-257 is 23.8 µM (inactive); in the assay with UO-31 it was 11.9 µM (inactive).
For the compound `COc1ccc(COCC[C@H](C)OC2OC(CO)C(O)C(O)C2O)cc1` (stereo not given in full), the GI50 in the assay on A498, in the assay with A549, in the assay on DU-145, in the assay with HCT-116, with HL-60 and with HOP-62 was > 100 µM (inactive) in each case. Also, the GI50 with HT-29, in the assay on IGROV-1, with LOX IMVI, in the assay with M14, in the assay with MOLT-4 and with NCI/ADR-RES was > 100 µM (inactive) throughout. For the same compound, the GI50 in the assay on OVCAR-3, with OVCAR-8, in the assay with PC-3, in the assay on SK-MEL-2, in the assay on SW-620 and in the assay on T47D was > 100 µM (inactive) in each case. Besides, the GI50 with UACC-257 and in the assay on UO-31 was > 100 µM (inactive) in each case.
On to `COc1ccc([C@]23CCC4(OCC(C)(C)CO4)[C@H]4CON(O[C@H](O[C@@H]5CCCCC5C(C)(C)c5ccccc5)C2)[C@@H]43)cc1OC` (stereo not given in full), for which the GI50 with A498 is 48.1 µM (inactive); in the assay with A549, 42.3 µM (inactive); in the assay with DU-145 it was 59.3 µM (inactive); in the assay with HCT-116 it was 33.3 µM (inactive); in the assay on HL-60, 20.6 µM (inactive); with HOP-62, 97.3 µM (inactive). The GI50 with HT-29 was 44 µM (inactive); in the assay on IGROV-1, 32.7 µM (inactive); in the assay with LOX IMVI, 57.5 µM (inactive); with M14 it was 35.6 µM (inactive); in the assay with MOLT-4 it was 17.7 µM (inactive); with NCI/ADR-RES, 31 µM (inactive). In addition, the GI50 was 34 µM (inactive) in the assay with OVCAR-3; 60 µM (inactive) with OVCAR-8; 39.6 µM (inactive) in the assay with PC-3; 47.1 µM (inactive) with SK-MEL-2; 36.4 µM (inactive) in the assay with SW-620; 20.2 µM (inactive) in the assay with T47D. Moreover, the values for the GI50 with UACC-257 and in the assay on UO-31 were 36.6 µM (inactive) and 35.8 µM (inactive), respectively.
As for `CC(C)C1SCc2nc3ccccc3n21` (stereo not given), the GI50 in the assay on A498 was 30.1 µM (inactive); with A549, 37.9 µM (inactive); in the assay on DU-145 it was 91.4 µM (inactive); in the assay with HCT-116, 30.6 µM (inactive); in the assay with HL-60 it was 43 µM (inactive); in the assay with HOP-62 it was 50.8 µM (inactive). For the same compound, the GI50 in the assay on HT-29 was 40.4 µM (inactive); in the assay with IGROV-1 it was 24.4 µM (inactive); with LOX IMVI, 35.4 µM (inactive); with M14, 33.4 µM (inactive); with MOLT-4, 20 µM (inactive); in the assay on NCI/ADR-RES, 29.4 µM (inactive). Also, the GI50 in the assay with OVCAR-3 is 39.8 µM (inactive); with OVCAR-8, 40.2 µM (inactive); in the assay with PC-3 it was 13.2 µM (inactive); with SK-MEL-2, 29.8 µM (inactive); in the assay on SW-620, 65.8 µM (inactive); with T47D, 58.1 µM (inactive). The GI50 with UACC-257 is 32.8 µM (inactive); in the assay on UO-31 it was 44.8 µM (inactive).
`CCC(C)C(N)C(=O)N/N=C\c1c2c(nc3ccccc13)-c1cc3c(c(=O)n1C2)COC(=O)[C@]3(O)CC` (stereo not given in full): the GI50 in the assay with A498 was 0.205 µM (active); in the assay with A549, 0.173 µM (active); in the assay on DU-145, 0.0158 µM (active); with HCT-116, 0.0536 µM (active); in the assay with HL-60, 0.0164 µM (active); in the assay on HOP-62, 0.0113 µM (active). Further, the GI50 is 0.69 µM (active) in the assay on HT-29; 0.832 µM (active) with IGROV-1; 0.0132 µM (active) with LOX IMVI; 0.039 µM (active) with M14; < 0.01 µM (active) in the assay on MOLT-4; 0.232 µM (active) in the assay with NCI/ADR-RES. Further, the GI50 in the assay on OVCAR-3 is 0.879 µM (active); in the assay with OVCAR-8, 0.0453 µM (active); with PC-3, 0.387 µM (active); in the assay on SK-MEL-2, 1.08 µM (active); in the assay with SW-620, 0.127 µM (active); with T47D it was < 0.01 µM (active). In addition, the GI50 was 0.467 µM (active) in the assay on UACC-257 and 0.12 µM (active) with UO-31.
